The source of these data is US20100055071A1, “Anti-Viral Compounds” (priority 2006, published 2010).

Structures are written as SMILES.

By inhibition is commonly meant the share of the control response that was lost under treatment.

The assay relates to HCV replication in ET (Huh-lucubineo-ET) cell line. Put plainly: Replicon Assay (HCV replicon luciferase, ET cell line). Format: cell-based. To be noted: Hepatitis C virus; tested at 10 μM; ET (Huh-lucubineo-ET) replicon cells; luciferase activity measured 48-72 hours later; relative to no compound control. As for the experimental part: A cell line, ET (Huh-lucubineo-ET) was used for screening of compounds of the present invention for inhibiting HCV replication. The ET cell line was stably transfected with RNA transcripts harboring a I389luc-ubi-neo/NS3-3′/ET; replicon with firefly luciferase-ubiquitin-neomycin phosphotransferase fusion protein and EMCV-IRES driven NS3-5B polyprotein containing the cell culture adaptive mutations (E1202G; T1280I; K1846T) (Krieger at al, 2001 and unpublished). The ET cells were grown in DMEM (Dulbeco's Modified Eagle's Medium), supplemented with 10% fetal calf serum, 2 mM Glutamine, Penicillin (100 IU/mL)/Streptomycin (100 μg/mL), 1× nonessential amino acids, and 250 μg/mL G418 (“Geneticin”). They were all available through Life Technologies (Bethesda, Md.). The cells were plated at 0.5-1.0×10^4 cells/well in the 96 well plates and incubated for 24 hrs before adding testing compounds. Then the compounds were added to the cells to achieve a final concentration of 0.1 nM to 50 μM and a final DMSO concentration of 0.5%. Luciferase activity were measured 48-72 hours later by adding a lysis buffer and the substrate (Catalog number Glo-lysis buffer E2661 and Bright-Glo luciferase system E2620 Promega, Madison, Wis.). Cells should not be too confluent during the assay. Percent inhibition of replication was plotted relative to no compound control. Under the same condition, cytotoxicity of the compounds was determined using cell proliferation reagent, WST-1 (Roche, Germany). The compounds showing antiviral activities, but no significant cytotoxicities were chosen to determine EC50 and TC50. For these determinations, a 10 point 2-fold serial dilution for each compound was used, which spans a concentration range of 1000 fold. EC50 and similarly TC50 values were calculated by fitting % inhibition at each concentration to the following equation:
% inhibition=100%/[(IC50/[I])^b+1]
where b is Hill's coefficient.
In some preferred embodiments compounds of Formula I will have a % inhibition of at least 20% when tested at 10 μM. In other embodiments the compounds of Formula I will have a % inhibition of at least 50% when tested at 10 μM.
(In general: A replicon is a self-replicating genome or part of one, used to study replication in cells.)
With `O=C(Nc1cccc(-c2ccc([C@@H]3CCCN3C(=O)OCc3ccccc3)cc2)c1)C1CC1` (stereo in doubt) [Compound 4009, 2-[3′-(Cyclopropanecarbonyl-amino)-biphenyl-4-yl]-pyrrolidine-1-carboxylic acid benzyl ester], the inhibition at 10 µM was found to be 31.7%.

`O=C(NC1CC1)c1ccc(-c2ccc3[nH]c([C@@H]4CSC(c5ccncc5)N4C(=O)OCc4ccccc4)nc3c2)cc1` (stereo in doubt) [Compound 4006, (S)-4-[5-(4-Cyclopropylcarbamoyl-phenyl)-1H-benzoimidazol-2-yl]-2-pyridin-4-yl-thiazolidine-3-carboxylic acid benzyl ester] yielded an inhibition at 10 µM of 99.8%.

The compound `O=C(Nc1ccc(-c2ccc([C@@H]3CCCN3C(=O)OCc3ccccc3)cc2)cc1)C1CC1` (stereo in doubt) [Compound 4026, 2-[4′-(Cyclopropanecarbonyl-amino)-biphenyl-4-yl]-pyrrolidine-1-carboxylic acid benzyl ester] came in with an inhibition at 10 µM of 47.6%.

In turn, `O=C(Nc1ccc(-c2ccc3nc([C@@H]4CCCN4C(=O)OCc4ccccc4)[nH]c3c2)cc1)C1CC1` [Compound 4058, (S)-2-{6-[4-(Cyclopropanecarbonyl-amino)-phenyl]-1H-benzoimidazol-2-yl}-pyrrolidine-1-carboxylic acid benzyl ester] returned an inhibition at 10 µM of 97.9%.

For the compound `O=C(NC1CC1)c1ccc(-c2ccc3nc([C@@H]4Cc5ccccc5N4C(=O)OCc4ccccc4)[nH]c3c2)cc1` [Compound 4010, (S)-2-[6-(4-Cyclopropylcarbamoyl-phenyl)-1H-benzoimidazol-2-yl]-2,3-dihydro-indole-1-carboxylic acid benzyl ester], testing at 10 µM gave an inhibition of 96.8%.

For `O=C(NCc1ccc(-c2ccc3nc([C@@H]4CCCN4C(=O)OCc4ccccc4)[nH]c3c2)cc1)C1CC1` [Compound 4038, (S)-2-(6-{4-[(Cyclopropanecarbonyl-amino)-methyl]-phenyl}-1H-benzoimidazol-2-yl)-pyrrolidine-1-carboxylic acid benzyl ester], the inhibition at 10 µM is 97%.
